{
  "source": "patent US20210267978A1",
  "about": "“NANOPARTICLE FORMULATIONS OF IKE AND METHODS OF USE THEREOF” (The Trustees of Columbia University in the City of New York, priority 2018, published 2021)",
  "key": {"SUDHL-6 cells": {"system": "SUDHL-6 cells", "test": "Free fatty acid cell survival test with or without IKE (CellTiter-Glo)", "type": "cell-based", "conditions": "for toxicity of free fatty acid to cells: 100 μM, 24 hours; for effect of free fatty acid on IKE-induced ferroptosis: 10 μM fatty acid with IKE", "source_text": "Relative Area Under Curve (AUC) to DMSO cotreatment was used to indicate the sensitization or protection effect of free fatty acids to IKE-induced ferroptosis."}, "SUDHL6 cells [1]": {"system": "SUDHL6 cells", "test": "C-11 BODIPY lipid peroxidation measurement (flow cytometry)", "type": "cell-based", "conditions": "10 μM fer-1 co-treatment", "method": "0.20 million SUDHL-6 cells were seeded in sixc^− well plates and treated with DMSO, IKE, or Fer-1 at specific concentration. The final cell density of 0.05 million cells/mL. After 24 h, cells were harvested by centrifuging at 300×g for 5 min. Cells were resuspended in 500 μL HBSS containing 2 μM C11-BODIPY (BODIPY 581/591 C11) (Thermo Fisher Scientific, D3861) and incubated at 37° C. for 15 min. Cells were pelleted and resuspended in HBSS. Fluorescence intensity was measured on the FL1 channel with gating to record live cells only (gate constructed from DMSO treatment group). A minimum of 10,000 cells were analyzed per condition."}, "SUDHL 6 cells": {"system": "SUDHL 6 cells", "test": "Measurement of IKE PEG-PLGA cellular activity (CellTiter-Glo, 24 h)", "type": "cell-based", "conditions": "fer-1 co-treatment", "method": "DLBCL cells or HT-1080 cells were plated at 2,000 cells per well in white 384-well plates (32 μL per well) in technical duplicates and incubated overnight. The cells were then treated with 8 μL medium containing a two-fold dilution series of vehicle 1 (DMSO), IKE, Fer-1, vehicle 2 (unfunctional PEG-PLGA nanoparticles), or IKE PEG-PLGA nanoparticles. The final concentration of IKE in PEG-PLGA nanoparticles were measured by LC-MS as described in the sections below. After 24 h incubation with compounds, 40 μL of 50% CellTiter-Glo (Promega) 50% cell culture medium was added to each well and incubated at room temperature with shaking for 15 min. Luminescence was measured using a Victor X5 plate reader (PerkinElmer). All cell viability data were normalized to the DMSO vehicle condition. Experiments were performed in three independent times with different passages for each cell line."}, "SUDHL6 cells [2]": {"system": "SUDHL6 cells", "test": "qPCR analysis of gene expression in cell culture", "type": "cell-based", "conditions": "SUDHL6 cells", "method": "To perform qPCR analysis in cell culture, DLBCL cells were treated with 0-10 μM IKE, Fer-1, or β-Me for the indicated times. RNA was extracted using the Qiashredder and Qiagen RNeasy Mini kits (Qiagen) according to the manufacture's protocol. 2 μg RNA from each sample was reversed transcribed to cDNA using a High Capacity cDNA Reverse Transcription Kit (Thermo Fisher Scientific, 4368814). Quantitative PCR reactions were performed using Power SYBR Green PCR Master Mix (Applied Biosystems) with triplicate measurement on ViiA 7 Real-Time PCR instrument (Thermo Fischer). HPRT1 was used as an internal reference. Differences in mRNA levels compared with HPRT1 were computed between vehicle and experimental groups using the ΔΔCt method. The primers used in the study were listed below."}, "DLBCL cell lines": {"system": "DLBCL cell lines", "test": "Fer-1 co-treatment rescue of IKE-induced cell death (CellTiter-Glo)", "type": "cell-based", "conditions": "co-treatment with IKE, 24 hours", "method": "The cell viability was measured by co-treating cells with a two-fold series dilution of IKE (starting from 100 μM) and two-fold series dilution of Fer-1 (starting from 200 μM) for 24 hours followed by a Cell Titor-Glo luminescent cell viability test. […] Data are plotted as the mean±s.d., n=2 biologically replicates. Three independent experiments were performed with similar results.\nDLBCL cells were plated at 10,000 cells per well in white 384-well plates (32 μL per well) in technical duplicates and incubated overnight. The cells were then treated with 8 μL medium containing a two-fold dilution series of vehicle (DMSO), IKE (starting from 100 μM) with or without Fer-1 (starting from 200 μM). After 24 h incubation, 40 μL of 50% CellTiter-Glo (Promega) 50% cell culture medium was added to each well and incubated at room temperature with shaking for 15 min. Luminescence was measured using a Victor X5 plate reader (PerkinElmer). All cell viability data were normalized to the DMSO vehicle condition. Experiments were performed three independent times with different passages for each cell line."}, "[3]": {"test": "Erastin and IKE solubility measurements (nephelometry)", "type": "physicochemical", "method": "Solubility measurement samples were prepared in a 96-well Corning Costar plate with two at 1% and 5% DMSO v/v with a total sample volume of 200 μL in MilliQ water. A BMG Labtech NEPHELOstar nephelometer was used to measure turbidity of the samples with the following parameters per the instrument manufacturer: Gain=80, Laser Focus=2.50 mm, and Laser Intensity=90%. Samples were shaken in the nephelometer by orbital shaking for 3 s prior to the turbidity measurement. Sample values were blanked in the instrument software using the corresponding water and DMSO condition values. Turbidity 4000 NTU Calibration Standard-Formazin (Millipore-Sigma) was used as a positive control for all turbidity measurements. The turbidity of each sample was measured within 20 minutes of initial preparation. After the initial measurement, the sample plates were covered with aluminum sealing film and allowed to sit overnight at room temperature prior to re-measuring."}, "SUDHL6 cells [4]": {"system": "SUDHL6 cells", "test": "Reduced glutathione measurement in cell culture (Fluorometric-Green)", "type": "cell-based", "conditions": "10 μM β-ME co-treatment, 24 h", "method": "2.4 million cells were incubated with DMSO, IKE, or β-mercaptoethanol (β-Me) at a density of 0.2 million cells/mL for 24 h. Cells were collected and washed with cold PBS once. Cell number was counted by Vi-Cell. Cells were resuspended in ice cold RIPA buffer (Thermo Fisher Scientific, 89900) with 100 μL/one million cells. Samples were centrifuged for 15 min at 4° C. at 17,000×g. The resulting supernatant was deproteinized using a trichloroacetic acid and sodium bicarbonate solution and kept on ice. The sample was diluted with assay buffer provided in GSH/GSSG Ratio Detection Assay Kit (Abcam, ab13881) ten-fold. Reduced glutathione (GSH) levels were determined using Fluorometric-Green provided in the kit following the manufacture's protocol. 384-well (Corning) low volume black flat bottom polystyrene non-treated microplates 1230F99 were used in this experiment."}, "GSH": {"system": "GSH", "conditions": "Narang et al., 2007; Lo et al., 2010; cited from earlier work"}},
  "data": [
    {"smiles": "CCCCC/C=C\\C/C=C\\C/C=C\\CCCCC(=O)O", "note": "[γ-linolenic acid]", "values": [
      {"measurement": "toxicity of free fatty acid to cells", "setting": "SUDHL-6 cells", "value": "toxic to cells"}
    ]},
    {"smiles": "CCCCC/C=C\\C/C=C\\C/C=C\\C/C=C\\CCCC(=O)O", "note": "[arachidonic acid]", "values": [
      {"measurement": "toxicity of free fatty acid to cells", "setting": "SUDHL-6 cells", "value": "toxic to cells"}
    ]},
    {"smiles": "CCOC(=O)c1ccc(NC2CCCCC2)c(N)c1", "note": "[fer-1, ferrostatin-1, reference compound]", "values": [
      {"measurement": "effect of co-treatment on IKE-induced lipid ROS signal (C11-BODIPY)", "setting": "SUDHL6 cells [1]", "value": "inhibited this signal"},
      {"measurement": "effect of co-treatment on cell death induced by IKE and IKE PEG-PLGA NPs", "setting": "SUDHL 6 cells", "value": "rescued cell death"},
      {"measurement": "effect of co-treatment on IKE-induced PTGS2 upregulation", "setting": "SUDHL6 cells [2]; 10 μM Fer-1 with 500 nM IKE for 6 hours", "value": "prevented"},
      {"measurement": "effect of co-treatment on IKE-induced CHAC1 upregulation", "setting": "SUDHL6 cells [2]; Fer-1 co-treatment", "value": "did not inhibit"},
      {"measurement": "effect of co-treatment on cell death induced by IKE", "setting": "DLBCL cell lines", "value": "rescued cell death"}
    ]},
    {"smiles": "CCCCCCCC/C=C\\CCCCCCCC(=O)O", "note": "[oleic acid]", "values": [
      {"measurement": "effect of free fatty acid on IKE-induced ferroptosis", "setting": "SUDHL-6 cells", "value": "protected against ferroptosis"}
    ]},
    {"smiles": "CCOc1ccccc1-n1c(C(C)N2CCN(C(=O)COc3ccc(Cl)cc3)CC2)nc2ccccc2c1=O", "note": "(stereo not shown) [erastin, reference compound]", "values": [
      {"measurement": "water solubility (in words)", "setting": "[3]", "value": "low water solubility"}
    ]},
    {"smiles": "CCCCCC/C=C\\CCCCCCCC(=O)O", "note": "[palmitoleic acid]", "values": [
      {"measurement": "effect of free fatty acid on IKE-induced ferroptosis", "setting": "SUDHL-6 cells", "value": "protected against ferroptosis"}
    ]},
    {"smiles": "OCCS", "note": "[β-ME, β-mercaptoethanol, reference compound]", "values": [
      {"measurement": "effect of co-treatment on GSH depletion by IKE", "setting": "SUDHL6 cells [4]", "value": "reversed"},
      {"measurement": "effect of co-treatment on IKE-induced upregulation of SLC7A11, CHAC1 and PTGS2 mRNAs", "setting": "SUDHL6 cells [2]; 10 μM β-Me with 500 nM IKE for 6 hours", "value": "prevented"}
    ]},
    {"smiles": "O=C(O)c1cc(/N=N/c2ccc(S(=O)(=O)Nc3ccccn3)cc2)ccc1O", "note": "[sulfasalazine]", "values": [
      {"measurement": "IC50 for GSH depletion", "setting": "GSH", "value": "millimolar range"}
    ]}
  ]
}
